# Laboratory results taken from BindingDB's records for PubMed 1353247 (University of Nebraska, 1992).
# Values joined by “and” are separate entries in the source; they are usually repeats but may differ in a detail not shown here. Equal entries are not always repeated.
# Key:
# [1] = target: T1, Alpha-2C adrenergic receptor (Homo sapiens, UniProt P18825)
# T1 sequence (P18825 whole entry): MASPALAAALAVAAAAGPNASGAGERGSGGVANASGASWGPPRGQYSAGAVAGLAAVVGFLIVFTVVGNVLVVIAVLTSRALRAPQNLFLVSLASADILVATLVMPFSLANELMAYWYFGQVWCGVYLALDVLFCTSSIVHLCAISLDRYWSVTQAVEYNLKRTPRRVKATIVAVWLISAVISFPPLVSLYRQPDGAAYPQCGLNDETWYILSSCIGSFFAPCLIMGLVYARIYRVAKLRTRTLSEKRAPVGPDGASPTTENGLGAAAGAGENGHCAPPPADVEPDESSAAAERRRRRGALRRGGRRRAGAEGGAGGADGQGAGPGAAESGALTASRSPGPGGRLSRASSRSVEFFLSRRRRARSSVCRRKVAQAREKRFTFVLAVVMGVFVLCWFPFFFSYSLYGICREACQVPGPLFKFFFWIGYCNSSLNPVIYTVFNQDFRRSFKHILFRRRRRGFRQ
# [2] = target: T2, Alpha-2B adrenergic receptor (Rattus norvegicus, UniProt P19328)
# T2 sequence (P19328 whole entry): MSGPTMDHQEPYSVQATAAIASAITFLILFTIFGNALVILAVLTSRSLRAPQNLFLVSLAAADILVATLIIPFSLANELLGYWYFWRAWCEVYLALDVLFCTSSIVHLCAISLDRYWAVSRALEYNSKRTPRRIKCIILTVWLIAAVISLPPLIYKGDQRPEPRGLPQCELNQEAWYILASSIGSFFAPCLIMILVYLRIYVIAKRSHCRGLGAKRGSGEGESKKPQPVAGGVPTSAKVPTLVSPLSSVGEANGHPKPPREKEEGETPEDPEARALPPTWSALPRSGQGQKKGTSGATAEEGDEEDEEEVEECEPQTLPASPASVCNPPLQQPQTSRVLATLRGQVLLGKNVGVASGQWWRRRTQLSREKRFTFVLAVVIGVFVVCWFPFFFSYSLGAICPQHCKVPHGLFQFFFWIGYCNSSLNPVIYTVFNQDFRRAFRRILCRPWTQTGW
# [3] = target: Alpha-2C adrenergic receptor
# [4] = target: T3, Alpha-2A adrenergic receptor (Homo sapiens, UniProt P08913)
# T3 sequence (P08913 whole entry): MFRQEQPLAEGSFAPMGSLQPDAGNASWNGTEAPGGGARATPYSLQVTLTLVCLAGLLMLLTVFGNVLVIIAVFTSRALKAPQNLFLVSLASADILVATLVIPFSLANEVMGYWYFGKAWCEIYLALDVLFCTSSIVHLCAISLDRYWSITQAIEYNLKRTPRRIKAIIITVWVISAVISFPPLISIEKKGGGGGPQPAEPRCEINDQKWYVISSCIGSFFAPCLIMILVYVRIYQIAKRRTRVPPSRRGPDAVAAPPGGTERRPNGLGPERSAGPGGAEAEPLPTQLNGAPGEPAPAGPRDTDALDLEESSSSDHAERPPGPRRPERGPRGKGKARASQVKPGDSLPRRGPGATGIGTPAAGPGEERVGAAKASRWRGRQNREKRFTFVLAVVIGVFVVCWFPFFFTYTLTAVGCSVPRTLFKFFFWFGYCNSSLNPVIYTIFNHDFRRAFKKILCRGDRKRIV
Structure (SMILES),Ki [1] [nM],Ki [2] [nM],Ki [3] [nM],Ki [4]
"O=C1NCN(c2ccccc2)C12CCN(CC1COc3ccccc3O1)CC2 (stereo not drawn) [8-(2,3-Dihydro-benzo[1,4]dioxin-2-ylmethyl)-1-phenyl-1,3,8-triaza-spiro[4.5]decan-4-one]",0.13,0.29,0.26,5.5 nM and 8.3 nM
COC(=O)C1=COC(C)C2CN3CCc4c([nH]c5ccccc45)C3CC12 (stereo not drawn) [Ajmalicine],–,31.2,1.71,6.4 nM
COc1cccc(OC)c1OCCNCC1Oc2ccccc2OC1c1ccccc1 (stereo not drawn) [NSC_185453],0.4,7.89,0.75,0.91 nM and 1.27 nM
COC(=O)C1=CO[C@@H](C)[C@@H]2CN3CCc4c([nH]c5ccccc45)[C@H]3C[C@H]12 [AKUAMMIGINE],–,159,20,71 nM and 104 nM
COc1ccccc1N1CCN(CCC2C(=O)c3ccccc3C(C)(C)C2=O)CC1 (stereo not drawn) [NSC_122211],3.82,–,–,–
CN1C[C@H](Cn2ccnc2-c2ccccc2)C[C@@H]2c3cccc4[nH]c(Br)c(c34)C[C@H]21 [BAM-1303],0.39,6.94,–,0.39 nM and 1.34 nM
